Consider six molecules from patent US12338255B2, “Bicyclic substituted sulfonylurea compounds as inhibitors of interleukin-1 activity” (Viva Star Biosciences (Suzhou) Co., Ltd., priority 2022, dated 2025).

The target in the assay is T1, NLRP3 (Homo sapiens, UniProt Q96P20).
T1 construct: Seed THP-1 cells (5.56*10^5 cells/mL) containing 1.0 ug/mL LPS; endogenous in cells; host or cells: THP-1 cells
T1 sequence (Q96P20 whole entry): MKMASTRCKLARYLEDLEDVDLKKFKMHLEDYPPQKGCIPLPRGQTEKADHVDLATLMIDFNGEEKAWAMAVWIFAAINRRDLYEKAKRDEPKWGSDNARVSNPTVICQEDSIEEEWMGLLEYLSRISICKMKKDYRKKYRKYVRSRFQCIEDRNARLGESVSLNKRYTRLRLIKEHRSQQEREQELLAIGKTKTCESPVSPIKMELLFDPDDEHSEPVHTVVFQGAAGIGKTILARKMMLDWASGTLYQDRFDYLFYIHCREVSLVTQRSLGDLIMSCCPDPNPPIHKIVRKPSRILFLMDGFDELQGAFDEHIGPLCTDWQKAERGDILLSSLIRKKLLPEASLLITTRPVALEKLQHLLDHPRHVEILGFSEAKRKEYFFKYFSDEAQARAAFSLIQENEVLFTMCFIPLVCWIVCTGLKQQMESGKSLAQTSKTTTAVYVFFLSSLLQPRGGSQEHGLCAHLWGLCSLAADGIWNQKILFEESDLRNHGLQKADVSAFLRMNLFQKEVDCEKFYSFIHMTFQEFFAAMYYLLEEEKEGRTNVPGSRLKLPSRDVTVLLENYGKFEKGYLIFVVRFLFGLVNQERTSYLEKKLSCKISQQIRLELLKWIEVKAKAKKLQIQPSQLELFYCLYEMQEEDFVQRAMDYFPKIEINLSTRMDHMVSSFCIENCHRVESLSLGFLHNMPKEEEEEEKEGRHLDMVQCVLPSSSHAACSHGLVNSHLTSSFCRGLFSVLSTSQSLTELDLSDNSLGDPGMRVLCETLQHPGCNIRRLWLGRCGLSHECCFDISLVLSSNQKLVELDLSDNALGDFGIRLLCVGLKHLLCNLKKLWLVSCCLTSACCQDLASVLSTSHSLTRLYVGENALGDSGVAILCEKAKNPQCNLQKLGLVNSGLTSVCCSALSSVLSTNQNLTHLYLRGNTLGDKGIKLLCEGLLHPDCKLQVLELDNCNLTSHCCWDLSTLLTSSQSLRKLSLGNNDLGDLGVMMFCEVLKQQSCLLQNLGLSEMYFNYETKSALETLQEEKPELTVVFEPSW
Kind of assay: THP-1 LPS/nigericin IL1β release (pyroptosis assay), HTRF. Format: cell-based. The following applies: NLRP3 inhibitory activity; THP-1 cells, 1.0 ug/mL LPS, compound 3 hrs, nigericin 5 uM 1 hr, IL1β in supernatant. The method, then: The following method was used for compound screening. • 1. Seed THP-1 cells (5.56*10^5 cells/mL) containing 1.0 ug/mL LPS (SIGMA, L6529) in 45 uL RPMI 1640 medium (without FBS) into 384-well plate (Thermo Scientific, 164688). • 2. Add 5 uL compound (10 doses starting from 5 uM, 1:3 dilution) or vehicle (0.05% DMSO in medium) to the appropriate wells. • 3. Centrifuge the plates at 1000 rpm for 2 mins and incubate for 3 hrs at 37° C., 5% CO2. • 4. Add 5 uL nigericin (MEC, HY-100381) (final conc. 5 uM) to sample wells and positive control wells; add 5 uL RPMI 1640 medium to negative control wells. • 5. Centrifuge plates at 1000 rpm for 2 mins and incubate for 1 hr at 37° C., 5% CO2. • 6. At the end of the incubation period, centrifuge plates at 1000 rpm for 6 mins and transfer 8 uL supernatant into 384-well assay plates (PerkinElmer, 6008280). • 7. Add 8 ul RPMI 1640 medium into each well and spin down for 10 secs. • 8. Prepare the standard solutions and pre-mixed IL1β antibodie solution of Human IL1β kits (PerkinElmer, 62HIL1BPEH) according to the instruction. • 9. Add 16 uL standard solutions into clear wells of 384-well assay plates. • 10. Add 4 uL pre-mixed IL1β antibodie solution to all wells including sample wells, positive control wells, negative control wells and standard solutions wells. • 11. Seal the plates, spin down for 10 secs, incubation for overnight at RT and read on an HTRF® compatible reader (BMG LABTECH, PHERAstar FS). • 12. The concentrations of IL1β for treated wells are calculated by the standard curve. • 13. The IC50 data is fitted to a non-liner regression equation (log inhibitor vs. response—Variable slope four parameters)).
A general note: TR-FRET usually uses a lanthanide donor and a delayed reading to cut background.
In turn, `O=C(Nc1c(-c2ccc3ccnn3c2)ccc2c1CCC2)NS(=O)(=O)c1cc2n(n1)CCO[C@@H]2C1CC1` (single isomer, unassigned) [Example 2] registered a half-inhibitory concentration (IC50) of 100 to 500 nM.

`Cc1cc2c(c(NC(=O)NS(=O)(=O)c3cnc4c(c3)N(C3CC3)CCO4)c1-c1ccn3nccc3c1)CCC2` [Example 25, 1-cyclopropyl-N-((6-methyl-5-(pyrazolo[1,5-a]pyridin-5-yl)-2,3-dihydro-1H-inden-4-yl)carbamoyl)-2,3-dihydro-1H-pyrido[2,3-b][1,4]oxazine-7-sulfonamide]: the IC50 was ≤ 100 nM. For `O=C(Nc1c(-c2ccn3nncc3c2)ccc2c1CCC2)NS(=O)(=O)c1cc2n(n1)CCO[C@@H]2C1CC1` (single isomer, unassigned) [Example 3], the IC50 was ≤ 100 nM.

In the case of `O=C(Nc1c(-c2ccc3nncn3c2)ccc2c1CCC2)NS(=O)(=O)c1cc2n(n1)CCO[C@@H]2C1CC1` (single isomer, unassigned) [Example 14], the IC50 was in the range of 500 to 1000 nM. With `O=C(Nc1c(-c2ccc3ncnn3c2)ccc2c1CCC2)NS(=O)(=O)c1cc2n(n1)CCO[C@H]2C1CC1` (single isomer, unassigned) [Example 8], the IC50 fell in the range of 100 to 500 nM.

As for `Cc1cc2c(c(NC(=O)NS(=O)(=O)c3cnn4c3COCC4)c1-c1ccnc3[nH]ccc13)CCC2` [Example 21, N-((6-methyl-5-(1H-pyrrolo[2,3-b]pyridin-4-yl)-2,3-dihydro-1H-inden-4-yl)carbamoyl)-6,7-dihydro-4H-pyrazolo[5,1-c][1,4]oxazine-3-sulfonamide], the 50% inhibitory concentration (IC50) is 100 to 500 nM.

As usually defined, the IC50 is the concentration needed to halve the response being measured.
